Test results reported in patent publication US20240109903A1, “SUBSTITUTED HETEROCYCLES FOR TREATING CANCER” (Northwestern University, priority 2022, published 2024).
Read-outs that look alike come from different tables or passages of the source.

How the values were obtained:
CAKI-1 = assay: NCI 60 five-dose screen CAKI-1; assay type: cell-based; details: Homo sapiens; for CC50: read-out: LC50 (the source's name) (converted)
SK-OV-3 = assay: NCI 60 five-dose screen SK-OV-3; assay type: cell-based; details: Homo sapiens; for CC50: read-out: LC50 (the source's name) (converted)
CCRF-CEM = assay: NCI 60 five-dose screen CCRF-CEM; assay type: cell-based; details: Homo sapiens; for CC50: read-out: LC50 (the source's name)
RPMI-8226 = assay: NCI 60 five-dose screen RPMI-8226; assay type: cell-based; details: Homo sapiens; for CC50: read-out: LC50 (the source's name)
MALME-3M = assay: NCI 60 five-dose screen MALME-3M; assay type: cell-based; details: Homo sapiens; for CC50: read-out: LC50 (the source's name) (converted)
NCI-H23 = assay: NCI 60 five-dose screen NCI-H23; assay type: cell-based; details: Homo sapiens; for CC50: read-out: LC50 (the source's name) (converted)
IGROV1 = assay: NCI 60 five-dose screen IGROV1; assay type: cell-based; details: Homo sapiens
NCI-H522 = assay: NCI 60 five-dose screen NCI-H522; assay type: cell-based; details: Homo sapiens; for CC50: read-out: LC50 (the source's name) (converted)
MOLT-4 = assay: NCI 60 five-dose screen MOLT-4; assay type: cell-based; details: Homo sapiens; for CC50: read-out: LC50 (the source's name)
PC-3 = assay: NCI 60 five-dose screen PC-3; assay type: cell-based; details: Homo sapiens; for CC50: read-out: LC50 (the source's name) (converted)
SK-MEL-2 = assay: NCI 60 five-dose screen SK-MEL-2; assay type: cell-based; details: Homo sapiens; for CC50: read-out: LC50 (the source's name) (converted)
SNB-19 = assay: NCI 60 five-dose screen SNB-19; assay type: cell-based; details: Homo sapiens; for CC50: read-out: LC50 (the source's name) (converted)
OVCAR-4 = assay: NCI 60 five-dose screen OVCAR-4; assay type: cell-based; details: Homo sapiens; for CC50: read-out: LC50 (the source's name) (converted)
SR = assay: NCI 60 five-dose screen SR; assay type: cell-based, human; details: for GI50 / IC50 / CC50: Homo sapiens; for CC50: read-out: LC50 (the source's name)

FC(F)(F)c1cc2c(Cl)ncnc2n1CCC1CCOCC1 [NUCC-0226674]
GI50 (CAKI-1; five-dose): 14.5 µM | IC50 (CAKI-1; five-dose): 26.9 µM | IC (TGI) (CAKI-1; five-dose): 30.2 µM | CC50 (CAKI-1; five-dose): 63.1 µM | GI50 (SK-OV-3; five-dose): 17.4 µM | IC50 (SK-OV-3; five-dose): 33.1 µM | IC (TGI) (SK-OV-3; five-dose): 33.1 µM | CC50 (SK-OV-3; five-dose): 64.6 µM | GI50 (CCRF-CEM; five-dose): 1.41 µM | IC50 (CCRF-CEM; five-dose): 2.51 µM | IC (TGI) (CCRF-CEM; five-dose): 4.57 µM | CC50 (CCRF-CEM; five-dose): ≥ 100 µM | GI50 (RPMI-8226; five-dose): 14.5 µM | IC50 (RPMI-8226; five-dose): 25.7 µM | IC (TGI) (RPMI-8226; five-dose): 41.7 µM | CC50 (RPMI-8226; five-dose): ≥ 100 µM | GI50 (MALME-3M; MALME-3M, five-dose): 15.1 µM | IC50 (MALME-3M; MALME-3M, five-dose): 29.5 µM | IC (TGI) (MALME-3M; MALME-3M, five-dose): 29.5 µM | CC50 (MALME-3M; MALME-3M, five-dose): 56.2 µM | GI50 (NCI-H23; five-dose): 2.57 µM | IC50 (NCI-H23; five-dose): 4.9 µM | IC (TGI) (NCI-H23; five-dose): 10 µM | CC50 (NCI-H23; five-dose): 34.7 µM | GI50 (IGROV1; IGROV-1, five-dose): 1.78 µM | IC50 (IGROV1; IGROV-1, five-dose): 3.16 µM | IC (TGI) (IGROV1; IGROV-1, five-dose): 3.47 µM | CC50 (IGROV1; IGROV-1, five-dose, read-out: LC50 (the source's name) (converted)): 6.76 µM | GI50 (NCI-H522; five-dose): 1.7 µM | IC50 (NCI-H522; five-dose): 3.39 µM | IC (TGI) (NCI-H522; five-dose): 3.72 µM | CC50 (NCI-H522; five-dose): 8.13 µM | GI50 (MOLT-4; five-dose): 2.34 µM | IC50 (MOLT-4; five-dose): 4.27 µM | IC (TGI) (MOLT-4; five-dose): 5.5 µM | CC50 (MOLT-4; five-dose): ≥ 100 µM | GI50 (PC-3; five-dose): 2.95 µM | IC50 (PC-3; five-dose): 4.27 µM | IC (TGI) (PC-3; five-dose): 11.2 µM | CC50 (PC-3; five-dose): 45.7 µM | GI50 (SK-MEL-2; five-dose): 13.2 µM | IC50 (SK-MEL-2; five-dose): 29.5 µM | IC (TGI) (SK-MEL-2; five-dose): 28.2 µM | CC50 (SK-MEL-2; five-dose): 60.3 µM | GI50 (SNB-19; five-dose): 5.25 µM | IC50 (SNB-19; five-dose): 12.3 µM | IC (TGI) (SNB-19; five-dose): 18.2 µM | CC50 (SNB-19; five-dose): 43.7 µM | GI50 (OVCAR-4; five-dose): 18.6 µM | IC50 (OVCAR-4; five-dose): 38 µM | IC (TGI) (OVCAR-4; five-dose): 50.1 µM | CC50 (OVCAR-4; five-dose): ≥ 100 µM | GI50 (SR; five-dose): 2.04 µM | IC50 (SR; five-dose): 3.72 µM | CC50 (SR; five-dose): ≥ 100 µM | TGI (SR; five-dose): 5.27 −log[M]

Fc1ccc(N2CC(Cn3c(C(F)(F)F)cc4c(Cl)ncnc43)C2)c(F)c1 [NUCC-0226695]
GI50 (CAKI-1): 11.7 µM | IC50 (CAKI-1): 20.4 µM | IC (TGI) (CAKI-1): 24 µM | CC50 (CAKI-1): 50.1 µM | GI50 (SK-OV-3): 14.5 µM | IC50 (SK-OV-3): 28.8 µM | IC (TGI) (SK-OV-3): 29.5 µM | CC50 (SK-OV-3): 60.3 µM | GI50 (CCRF-CEM): 10.5 µM | IC50 (CCRF-CEM): 41.7 µM | IC (TGI) (CCRF-CEM): 100 µM | CC50 (CCRF-CEM): ≥ 100 µM | GI50 (RPMI-8226): 23.4 µM | IC50 (RPMI-8226): 37.2 µM | IC (TGI) (RPMI-8226): 64.6 µM | CC50 (RPMI-8226): ≥ 100 µM | GI50 (MALME-3M; Malme-3M): 12.6 µM | IC50 (MALME-3M; Malme-3M): 25.7 µM | IC (TGI) (MALME-3M; Malme-3M): 25.1 µM | CC50 (MALME-3M; Malme-3M): 50.1 µM | GI50 (NCI-H23): 2.63 µM | IC50 (NCI-H23): 4.9 µM | IC (TGI) (NCI-H23): 8.32 µM | CC50 (NCI-H23): 30.9 µM | GI50 (IGROV1; IGROV-1): 1.86 µM | IC50 (IGROV1; IGROV-1): 3.24 µM | IC (TGI) (IGROV1; IGROV-1): 3.55 µM | CC50 (IGROV1; IGROV-1, read-out: LC50 (the source's name) (converted)): 6.76 µM | GI50 (NCI-H522): 1.82 µM | IC50 (NCI-H522): 3.47 µM | IC (TGI) (NCI-H522): 3.98 µM | CC50 (NCI-H522): 8.71 µM | GI50 (MOLT-4): 3.09 µM | IC50 (MOLT-4): 4.57 µM | IC (TGI) (MOLT-4): 8.91 µM | CC50 (MOLT-4): ≥ 100 µM | GI50 (PC-3): 3.09 µM | IC50 (PC-3): 4.27 µM | IC (TGI) (PC-3): 11 µM | CC50 (PC-3): 58.9 µM | GI50 (SK-MEL-2): 15.8 µM | IC50 (SK-MEL-2): 31.6 µM | IC (TGI) (SK-MEL-2): 30.9 µM | CC50 (SK-MEL-2): 61.7 µM | GI50 (SNB-19): 15.1 µM | IC50 (SNB-19): 27.5 µM | IC (TGI) (SNB-19): 28.8 µM | CC50 (SNB-19): 55 µM | GI50 (OVCAR-4): 12.9 µM | IC50 (OVCAR-4): 24.5 µM | IC (TGI) (OVCAR-4): 26.9 µM | CC50 (OVCAR-4): 56.2 µM | TGI (SR): 5.16 −log[M] | GI50 (SR): 2.14 µM | IC50 (SR): 3.39 µM | CC50 (SR): ≥ 100 µM
